Measured values: US20260083865A1, “PROSTATE SPECIFIC MEMBRANE ANTIGEN (PSMA) LIGANDS AND USE THEREOF” (priority 2022, published 2026)
Read-outs that look alike come from different tables or passages of the source. Numbered stars: 1 amine (or outer) side, 2 acyl side, 3 side chain; on linkers, the order of the positions; unused ones are H or OH. Bridge positions count the residues as written; N and C are the ends. Square brackets hold non-standard residues; d marks the D form. Peptide text beside a SMILES is read from it. * marks the point of attachment. TtdsdLys(DOTA)NH2 = NC(=O)[C@@H](CCCCNC(=O)CN1CCN(CC(=O)O)CCN(CC(=O)O)CCN(CC(=O)O)CC1)NC(=O)CCC(=O)NCCCOCCOCCOCCCN*; Acetyl(1-DOTA-4-piperidyl) = O=C(O)CN1CCN(CC(=O)O)CCN(CC(=O)N2CCC(CC(=O)*)CC2)CCN(CC(=O)O)CC1; X7 = O=C(O)CN1CCN(CC(=O)O)CCN(CC(=O)NC2CCN(CC(=O)*)CC2)CCN(CC(=O)O)CC1; DOTA = O=C(O)CN1CCN(CC(=O)O)CCN(CC(=O)*)CCN(CC(=O)O)CC1; Arg(Me2a) = CN(C)C(=N)NCCC[C@H](N)C(=O)O; Phe(3-Cl) = N[C@@H](Cc1cccc(Cl)c1)C(=O)O; Phe(4-Cl) = N[C@@H](Cc1ccc(Cl)cc1)C(=O)O; Propanoyl(3-SO2NH2) = NS(=O)(=O)CCC(=O)*; Pro(4,4-F2) = O=C(O)[C@@H]1CC(F)(F)CN1; Arg(Me) = CNC(=N)NCCC[C@H](N)C(=O)O; Ethylenediamine = C(CN[*:2])N[*:1]; X1 = O=C(CC1CCN([*:1])CC1)[*:2]; Lys(Me) = CNCCCC[C@H](N)C(=O)O; Tle = CC(C)(C)[C@H](N)C(=O)O; Nle = CCCC[C@H](N)C(=O)O; Hexanoyl = CCCCCC(=O)*; Aib = CC(C)(N)C(=O)O

Tests used:
[1] = biological target: T1, PSMA-expressing C4-2 cells (Homo sapiens, UniProt Q04609); assay: FACS binding assay (competition with 50 nM PSM-0183)
T1 construct: PSMA-expressing C4-2 cells (ATCC, Cat. No. CRL-3314) were cultured in RPMI-1640; host or cells: C4-2 cells
T1 sequence (Q04609 whole entry): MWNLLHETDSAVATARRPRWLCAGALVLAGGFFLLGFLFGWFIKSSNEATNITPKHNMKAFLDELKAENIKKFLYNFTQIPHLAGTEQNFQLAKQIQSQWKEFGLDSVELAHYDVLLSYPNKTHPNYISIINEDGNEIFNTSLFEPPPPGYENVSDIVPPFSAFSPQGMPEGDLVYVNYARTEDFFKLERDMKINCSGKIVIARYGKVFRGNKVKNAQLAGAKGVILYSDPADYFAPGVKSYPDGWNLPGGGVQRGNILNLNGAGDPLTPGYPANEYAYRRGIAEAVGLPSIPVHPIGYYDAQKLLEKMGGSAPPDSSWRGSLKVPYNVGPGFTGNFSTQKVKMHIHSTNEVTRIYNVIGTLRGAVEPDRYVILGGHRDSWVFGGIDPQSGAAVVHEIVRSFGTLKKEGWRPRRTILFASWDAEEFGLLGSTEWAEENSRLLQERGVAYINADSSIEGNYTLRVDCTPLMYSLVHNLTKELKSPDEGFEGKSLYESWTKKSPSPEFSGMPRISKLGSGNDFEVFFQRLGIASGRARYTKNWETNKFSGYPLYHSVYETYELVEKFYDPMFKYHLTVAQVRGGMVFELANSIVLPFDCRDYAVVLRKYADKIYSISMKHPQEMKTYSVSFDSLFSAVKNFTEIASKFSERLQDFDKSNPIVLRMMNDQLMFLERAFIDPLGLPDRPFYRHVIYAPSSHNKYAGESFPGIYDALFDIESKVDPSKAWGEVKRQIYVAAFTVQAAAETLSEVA
In short: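 C4-2 cells were incubated 1 h at 4 °C with 50 nM AF488-labelled peptide PSM-0183 plus increasing test compound concentrations, then washed twice in ice-cold buffer. Median fluorescence in the AF488 channel was read by flow cytometry. IC50/pIC50 was derived by 4PL fitting of MFI versus concentration.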

[2] = biological target: T2, Fc-fusion protein of human PSMA (hPSMA-Fc) (Homo sapiens, UniProt Q04609); assay: Surface plasmon resonance assay (Biacore T200, single cycle kinetic); assay type: binding
T2 construct: purchased Acro Biosystems PSA-H5264
T2 sequence (Q04609 44-750 limits assumed): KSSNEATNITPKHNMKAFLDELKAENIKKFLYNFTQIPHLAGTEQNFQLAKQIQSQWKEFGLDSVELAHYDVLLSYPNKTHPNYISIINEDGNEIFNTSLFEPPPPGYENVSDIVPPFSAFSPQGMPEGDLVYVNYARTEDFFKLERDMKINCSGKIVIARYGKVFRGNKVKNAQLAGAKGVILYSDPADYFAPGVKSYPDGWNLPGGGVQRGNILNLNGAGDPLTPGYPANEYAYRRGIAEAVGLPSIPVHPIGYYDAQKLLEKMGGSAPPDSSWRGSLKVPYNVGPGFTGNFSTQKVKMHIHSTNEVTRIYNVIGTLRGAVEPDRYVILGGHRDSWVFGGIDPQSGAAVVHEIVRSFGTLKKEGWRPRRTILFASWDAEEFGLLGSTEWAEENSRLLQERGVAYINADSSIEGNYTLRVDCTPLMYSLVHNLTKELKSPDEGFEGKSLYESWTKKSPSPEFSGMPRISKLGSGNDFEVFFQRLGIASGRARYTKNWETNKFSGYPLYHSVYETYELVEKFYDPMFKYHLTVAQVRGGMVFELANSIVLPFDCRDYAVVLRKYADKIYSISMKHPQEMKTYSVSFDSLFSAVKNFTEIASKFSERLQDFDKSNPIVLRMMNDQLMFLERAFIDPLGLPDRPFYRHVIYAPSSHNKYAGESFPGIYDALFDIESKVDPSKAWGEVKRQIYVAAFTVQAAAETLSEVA
In short: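 hPSMA-Fc was captured (~1000 RU) on an Fc-binding-peptide CM5 chip, and compounds were run in single cycle kinetic mode at 25° C in HBST with 0.1% DMSO. Double-blank-corrected sensorgrams were fitted to a 1:1 Langmuir model to give KD, reported as pKD.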

[3] = FACS binding, C4-2 cells, category, read-out: pIC50 [C4-2] CAT (converted)
[4] = PSMA SPR assay, category, read-out: pKD CAT (converted)
[5] = pIC50 category of FACS binding, C4-2 cells, read-out: pIC50 [C4-2] CAT (converted)
[6] = pKD category for PSMA SPR activity assay, hPSMA-Fc, 25° C., read-out: pKD CAT (converted)
[7] = FACS binding, C4-2 cells, competition with 50 nM PSM-0183, category, read-out: pIC50 [C4-2] CAT (converted)
[8] = SPR, hPSMA-Fc, single cycle kinetic, 25° C., category, read-out: pKD CAT (converted)

`CC(=O)N[C@H](C(=O)NC(C)(C)C(=O)N[C@@H](Cc1c[nH]c2ccccc12)C(=O)N[C@H]1CSSC[C@@H](C(=O)N[C@H](C(=O)N[C@H](C(=O)N[C@@H](CC(=O)O)C(N)=O)[C@@H](C)O)C(C)(C)C)NC(=O)[C@H](CC(N)=O)NC(=O)C(C)(C)NC(=O)[C@H](CCCNC(=N)N)NC(=O)[C@H](CCCCN)NC1=O)[C@@H](C)O` [PSM-0587, Ac-Thr-Aib-Trp-[Cys-Lys-Arg-Aib-Asn-Cys]-Tle-Thr-Asp-NH2] (Ac-T[Aib]WCKR[Aib]NC[Tle]TD-NH2; disulfide 4-9) was tested, and the IC50 [1, 3] was under 200 nM and the Kd [2, 4] was under 12.6 nM.
In the case of `CCCC[C@@H]1NC(=O)[C@@H](NC(=O)[C@H](Cc2ccc(Cl)cc2)NC(=O)C(C)(C)NC(=O)[C@@H](NC(C)=O)[C@@H](C)O)CSSC[C@@H](C(=O)N[C@H](C(=O)N[C@H](C(N)=O)[C@@H](C)O)C(C)(C)C)NC(=O)[C@H](CC(N)=O)NC(=O)C(C)(C)NC(=O)[C@H](CCCNC(=N)NC(C)=O)NC1=O` [PSM-0570, Ac-Thr-Aib-Pcf-[Cys-Nle-Arg(Ac)-Aib-Asn-Cys]-Tle-Thr-NH2] (Ac-T[Aib][Phe(4-Cl)]C[Nle]R(Ac)[Aib]NC[Tle]T-NH2; disulfide 4-9), the IC50 [1, 3] is reported as under 200 nM and the Kd [2, 4] is reported as 12.6 to 126 nM.
With `CCCCCC(=O)N[C@H](C(=O)NC(C)(C)C(=O)N[C@@H](Cc1ccc(Cl)cc1)C(=O)N[C@H]1CSSC[C@@H](C(=O)N[C@H](C(=O)N[C@H](C(=O)N[C@H](CCCCNC(=O)CC2CCN(C(=O)CN3CCN(CC(=O)O)CCN(CC(=O)O)CCN(CC(=O)O)CC3)CC2)C(N)=O)[C@@H](C)O)C(C)(C)C)NC(=O)[C@H](CC(N)=O)NC(=O)C(C)(C)NC(=O)[C@H](CCCNC(=N)N)NC(=O)[C@H](CCCCN)NC1=O)[C@@H](C)O` [PSM-0400, Hex-Thr-Aib-Pcf-[Cys-Lys-Arg-Aib-Asn-Cys]-Tle-Thr-lys(DOTA-Cmp)-NH2] (Hexanoyl-T[Aib][Phe(4-Cl)]CKR[Aib]NC[Tle]T[dK](Acetyl(1-DOTA-4-piperidyl))-NH2; disulfide 4-9) the IC50 [1, 5] was under 200 nM and the Kd [2, 6] was under 12.6 nM.
“Ac-Thr-Aib-Phe-[Cys-Lys-Arg-Aib-Asn-Cys]-Tle-Thr-Cmp-lys (InDOTA)-NH2 [PSM-0440]” was tested, and the “pIC50 [C4-2] CAT” value ([1]; pIC50 category of FACS binding, C4-2 cells) was “A (pIC50 values >6.7)” and the “pKD CAT” value ([2]; pKD category for PSMA SPR activity assay, hPSMA-Fc, 25° C.) was “A (pKD values >7.9)”.
`CNCCCC[C@@H]1NC(=O)[C@@H](NC(=O)[C@H](Cc2ccc(Cl)cc2)NC(=O)C(C)(C)NC(=O)[C@@H](NC(=O)CC2CCN(C(=O)CN3CCN(CC(=O)O)CCN(CC(=O)O)CCN(CC(=O)O)CC3)CC2)[C@@H](C)O)CSSC[C@@H](C(=O)N[C@H](C(=O)N[C@H](C(N)=O)[C@@H](C)O)C(C)(C)C)NC(=O)[C@H](CC(N)=O)NC(=O)C(C)(C)NC(=O)[C@H](CCCNC(=N)N(C)C)NC1=O` [PSM-0247, DOTA-Cmp-Thr-Aib-Pcf-[Cys-Lys(Me)-RMe2-Aib-Asn-Cys]-Tle-Thr-NH2] ({DOTA}-[X1]T[Aib][Phe(4-Cl)]C[Lys(Me)][Arg(Me2a)][Aib]NC[Tle]T-NH2; disulfide 5-10) showed an IC50 [1, 7] of under 200 nM and a Kd [2, 8] of under 12.6 nM.
`C[C@@H](O)[C@H](NC(=O)[C@@H](NC(=O)[C@@H]1CSSC[C@H](NC(=O)[C@H](Cc2ccc(Cl)cc2)NC(=O)C(C)(C)NC(=O)CCS(N)(=O)=O)C(=O)N[C@@H](CCCCN)C(=O)N[C@@H](CCCNC(=N)N)C(=O)N[C@@H](CCCCNC(=O)CN2CCC(NC(=O)CN3CCN(CC(=O)O)CCN(CC(=O)O)CCN(CC(=O)O)CC3)CC2)C(=O)N[C@@H](CC(N)=O)C(=O)N1)C(C)(C)C)C(N)=O` [PSM-0188, SaPr-Aib-Pcf-[Cys-Lys-Arg-Lys(DOTA-APAc)-Asn-Cys]-Tle-Thr-NH2] ({Propanoyl(3-SO2NH2)}-[Aib][Phe(4-Cl)]CKRK(X7)NC[Tle]T-NH2; disulfide 3-8) gave an IC50 [1, 7] of under 200 nM and a Kd [2, 8] of under 12.6 nM.
In the case of `CC(=O)N[C@H](C(=O)NC(C)(C)C(=O)N[C@@H](Cc1cccc(Cl)c1)C(=O)N[C@H]1CSSC[C@@H](C(=O)N[C@H](C(=O)N[C@H](C(=O)N2CCC(CC(=O)N[C@H](CCCCNC(=O)CN3CCN(CC(=O)O)CCN(CC(=O)O)CCN(CC(=O)O)CC3)C(N)=O)CC2)[C@@H](C)O)C(C)(C)C)NC(=O)[C@H](CC(N)=O)NC(=O)C(C)(C)NC(=O)[C@H](CCCNC(=N)N)NC(=O)[C@H](CCCCN)NC1=O)[C@@H](C)O` [PSM-0486, Ac-Thr-Aib-Mcf-[Cys-Lys-Arg-Aib-Asn-Cys]-Tle-Thr-Cmp-lys(DOTA)-NH2] (Ac-T[Aib][Phe(3-Cl)]CKR[Aib]NC[Tle]T[X1][dK](DOTA)-NH2; disulfide 4-9), the IC50 [1, 5] is reported as under 200 nM and the Kd [2, 6] is reported as under 12.6 nM.
In the case of `C[C@@H](O)[C@H](NC(=O)CN1CCN(CC(=O)O)CCN(CC(=O)O)CCN(CC(=O)O)CC1)C(=O)NC(C)(C)C(=O)N[C@@H](Cc1ccc(Cl)cc1)C(=O)N[C@H]1CSSC[C@@H](C(=O)N[C@H](C(=O)NCCN)C(C)(C)C)NC(=O)[C@H](CC(N)=O)NC(=O)C(C)(C)NC(=O)[C@H](CCCNC(=N)N)NC(=O)[C@H](CCCCN)NC1=O` [PSM-0222, DOTA-Thr-Aib-Pcf-[Cys-Lys-Arg-Aib-Asn-Cys]-Tle-en] ({DOTA}-T[Aib][Phe(4-Cl)]CKR[Aib]NC[Tle]-Ethylenediamine; disulfide 4-9), the IC50 [1, 7] is reported as under 200 nM and the Kd [2, 8] is reported as under 12.6 nM.
`CNCCCC[C@@H]1NC(=O)[C@@H](NC(=O)[C@H](Cc2ccc(Cl)cc2)NC(=O)C(C)(C)NC(=O)[C@@H](NC(=O)CC2CCN(C(=O)CN3CCN(CC(=O)O)CCN(CC(=O)O)CCN(CC(=O)O)CC3)CC2)C(C)(C)C)CSSC[C@@H](C(=O)N[C@H](C(=O)N[C@H](C(N)=O)[C@@H](C)O)C(C)(C)C)NC(=O)[C@H](CC(N)=O)NC(=O)C(C)(C)NC(=O)[C@H](CCCNC(=N)NC)NC1=O` [PSM-0538, DOTA-Cmp-Tle-Aib-Pcf-[Cys-Lys (Mc)-Arg (Mc)-Aib-Asn-Cys]-Tle-Thr-NH2] ({DOTA}-[X1][Tle][Aib][Phe(4-Cl)]C[Lys(Me)][Arg(Me)][Aib]NC[Tle]T-NH2; disulfide 5-10) showed an IC50 [1, 5] of 200 to 1260 nM and a Kd [2, 6] of 126 to 501 nM.
`CC(=O)N[C@H]1CSSC[C@@H](C(=O)N[C@@H](CC(C)C)C(=O)N[C@H](C(=O)N[C@@H](CC(=O)O)C(=O)NCCCOCCOCCOCCCNC(=O)CCC(=O)N[C@H](CCCCNC(=O)CN2CCN(CC(=O)O)CCN(CC(=O)O)CCN(CC(=O)O)CC2)C(N)=O)[C@@H](C)O)NC(=O)[C@H](CC(N)=O)NC(=O)[C@H](C)NC(=O)[C@H](CCCNC(=N)N)NC(=O)[C@H](CCCCN)NC1=O` [PSM-0591, Ac-[Cys-Lys-Arg-Ala-Asn-Cys]-Leu-Thr-Asp-Ttds-lys(DOTA)-NH2] (Ac-CKRANCLTD-{TtdsdLys(DOTA)NH2}; disulfide 1-6) was tested, and the IC50 [1, 3] was over 3160 nM and the Kd [2, 4] was over 501 nM.
`CC(=O)N[C@H](C(=O)NC(C)(C)C(=O)N[C@@H](Cc1ccccc1)C(=O)N[C@H]1CSSC[C@@H](C(=O)N[C@H](C(=O)N[C@H](C(=O)N[C@@H](CC(=O)O)C(N)=O)[C@@H](C)O)C(C)(C)C)NC(=O)[C@H](CC(N)=O)NC(=O)[C@@H]2CC(F)(F)CN2C(=O)[C@H](CCCNC(=N)N)NC(=O)[C@H](CCCCN)NC1=O)[C@@H](C)O` [PSM-0217, Ac-Thr-Aib-Phe-[Cys-Lys-Arg-Dfp-Asn-Cys]-Tle-Thr-Asp-NH2] (Ac-T[Aib]FCKR[Pro(4,4-F2)]NC[Tle]TD-NH2; disulfide 4-9) was tested, and the IC50 [1] was under 200 nM and the Kd [2] was 12.6 to 126 nM.
With `CC(=O)N[C@H](C(=O)NC(C)(C)C(=O)N[C@@H](Cc1ccc(O)cc1)C(=O)N[C@H]1CSSC[C@@H](C(=O)N[C@H](C(=O)N[C@H](C(=O)N[C@@H](CC(=O)O)C(N)=O)[C@@H](C)O)C(C)(C)C)NC(=O)[C@H](CC(N)=O)NC(=O)C(C)(C)NC(=O)[C@H](CCCNC(=N)N)NC(=O)[C@H](CCCCN)NC1=O)[C@@H](C)O` [PSM-0488, Ac-Thr-Aib-Tyr-[Cys-Lys-Arg-Aib-Asn-Cys]-Tle-Thr-Asp-NH2] (Ac-T[Aib]YCKR[Aib]NC[Tle]TD-NH2; disulfide 4-9) the IC50 [1, 5] was under 200 nM and the Kd [2, 6] was 12.6 to 126 nM.
